Where two headings read alike, the source gives them in different places.
How the values were obtained:
[1] = tested on: Acinetobacter baumannii-calcoaceticus species complex clinical isolates; test: MIC of triple combinations (Compound 1, sulbactam, meropenem or cefepime), 141 clinical isolates; assay type: cell-based; conditions: Acinetobacter, Cmpd 1 at 4 μg/mL in combinations, read-out: MIC
From the text: For a more comprehensive assessment of the ability of test compounds to potentiate sulbactam in triple combinations with β-lactams additional MIC assays were utilized.

[2] = tested on: multi-drug resistant Acinetobacter baumannii; test: broth microdilution MIC of sulbactam, ampicillin, cefepime and combinations +/- Compound 1, panel of 51 Acinetobacter isolates

Molecule `CO/N=C(\C(=O)N[C@@H]1C(=O)N2C(C(=O)[O-])=C(C[N+]3(C)CCCC3)CS[C@H]12)c1csc(N)n1` [FEP, cefepime] has an MIC ([1]; strain 990089) of 64 µg/mL, an MIC ([1]; strain 993131) of 64 µg/mL and an MIC ([1]; strain 994180) of 32 µg/mL. For the same molecule, the MIC ([1]; strain 996612) was over 512 µg/mL, the MIC ([1]; strain 996707) was 64 µg/mL and the MIC ([1]; strain 996869) was 32 µg/mL. It also gave an MIC ([1]; strain 997574) of 16 µg/mL, an MIC ([1]; strain 998532) of 64 µg/mL and an MIC ([1]; strain 998907) of 8 µg/mL. It also gave an MIC ([1]; strain 999306) of 8 µg/mL, an MIC ([1]; strain 1001611) of 16 µg/mL and an MIC ([1]; strain 1002208) of 64 µg/mL. It also gave an MIC ([1]; strain 1002247) of over 512 µg/mL, an MIC ([1]; strain 1002688) of 64 µg/mL and an MIC ([1]; strain 1002952) of 64 µg/mL. For the same molecule, the MIC ([1]; strain 1003557) was 64 µg/mL, the MIC ([1]; strain 1003787) was over 512 µg/mL and the MIC ([1]; strain 1008510) was 64 µg/mL. The MIC ([1]; strain 1008730) was 64 µg/mL, the MIC ([1]; strain 1010245) was 64 µg/mL and the MIC ([1]; strain 1010331) was over 512 µg/mL. For the same molecule, the MIC ([1]; strain 1010950) was over 512 µg/mL, the MIC ([1]; strain 1011959) was 64 µg/mL and the MIC ([1]; strain 1013022) was 64 µg/mL. The MIC ([1]; strain 1013035) was 32 µg/mL, the MIC ([1]; strain 1014143) was 32 µg/mL and the MIC ([1]; strain 1014646) was 64 µg/mL. The MIC ([1]; strain 1016836) was 64 µg/mL, the MIC ([1]; strain 1018109) was 2 µg/mL and the MIC ([1]; strain 1018801) was over 512 µg/mL. The MIC ([1]; strain 1023207) was 32 µg/mL, the MIC ([1]; strain 1024119) was 32 µg/mL and the MIC ([1]; strain 1024215) was 32 µg/mL. For the same molecule, the MIC ([1]; strain 1027234) was 64 µg/mL, the MIC ([1]; strain 1027603) was 64 µg/mL and the MIC ([1]; strain 1027748) was 32 µg/mL. For the same molecule, the MIC ([1]; strain 1028193) was 32 µg/mL, the MIC ([1]; strain 1029913) was 32 µg/mL and the MIC ([1]; strain 1030427) was 32 µg/mL. For the same molecule, the MIC ([1]; strain 1030928) was over 512 µg/mL, the MIC ([1]; strain 1031191) was 64 µg/mL and the MIC ([1]; strain 1032669) was 64 µg/mL. The MIC ([1]; strain 1034880) was 64 µg/mL, the MIC ([1]; strain 1034912) was 64 µg/mL and the MIC ([1]; strain 1034925) was 64 µg/mL. For the same molecule, the MIC ([1]; strain 1035788) was 32 µg/mL, the MIC ([1]; strain 1035794) was 16 µg/mL and the MIC ([1]; strain 1035825) was 64 µg/mL. The MIC ([1]; strain 1036045) was 64 µg/mL, the MIC ([1]; strain 1036068) was 64 µg/mL and the MIC ([1]; strain 1036768) was over 512 µg/mL. It also gave an MIC ([1]; strain 1036781) of 32 µg/mL, an MIC ([1]; strain 1036882) of 16 µg/mL and an MIC ([1]; strain 1036921) of 32 µg/mL. For the same molecule, the MIC ([1]; strain 1037193) was 32 µg/mL, the MIC ([1]; strain 1037256) was 32 µg/mL and the MIC ([1]; strain 1037479) was over 512 µg/mL. For the same molecule, the MIC ([1]; strain 1037714) was 4 µg/mL, the MIC ([1]; strain 1037732) was 32 µg/mL and the MIC ([1]; strain 1037738) was 32 µg/mL. It also gave an MIC ([1]; strain 1037747) of over 512 µg/mL, an MIC ([1]; strain 1039502) of over 512 µg/mL and an MIC ([1]; strain 1039515) of 64 µg/mL. It also gave an MIC ([1]; strain 1039518) of 64 µg/mL, an MIC ([1]; strain 1040900) of 64 µg/mL and an MIC ([1]; strain 1040917) of over 512 µg/mL. For the same molecule, the MIC ([1]; strain 1042182) was 32 µg/mL, the MIC50 [2] was 32 µg/mL and the MIC90 [2] was 128 µg/mL. It also gave an MIC ([2]; read-out: Minimum inhibitory concentration (MIC), strain 0273 (ADC-25, OXA-23, OXA-66)) of 32 µg/mL, an MIC ([2]; read-out: Minimum inhibitory concentration (MIC), strain 0274 (TEM-1D, ADC-25, OXA-66, OXA-72)) of 32 µg/mL and an MIC ([2]; read-out: Minimum inhibitory concentration (MIC), strain 0275 (TEM-1D, ADC-25, OXA-23, OXA-66)) of 32 µg/mL. For the same molecule, the MIC ([2]; read-out: Minimum inhibitory concentration (MIC), strain 0276 (enzyme content ND)) was 128 µg/mL, the MIC ([2]; read-out: Minimum inhibitory concentration (MIC), strain 0277 (TEM-1B, OXA-65, OXA-24)) was 128 µg/mL and the MIC ([2]; read-out: Minimum inhibitory concentration (MIC), strain 0278 (TEM-1D, ADC-25, OXA-23, OXA-66)) was 32 µg/mL. The MIC ([2]; read-out: Minimum inhibitory concentration (MIC), strain 0279 (TEM-1D, ADC-25, OXA-23, OXA-66)) was 32 µg/mL, the MIC ([2]; read-out: Minimum inhibitory concentration (MIC), strain 0280 (TEM-1D, ADC-25, OXA-66)) was 16 µg/mL and the MIC ([2]; read-out: Minimum inhibitory concentration (MIC), strain 0281 (TEM-1D, ADC-25, OXA-82)) was 16 µg/mL. The MIC ([2]; read-out: Minimum inhibitory concentration (MIC), strain 0282 (TEM-1D, ADC-25, OXA-23, OXA-66)) was 64 µg/mL, the MIC ([2]; read-out: Minimum inhibitory concentration (MIC), strain 0283 (TEM-1D, ADC-25, OXA-23, OXA-66)) was 16 µg/mL and the MIC ([2]; read-out: Minimum inhibitory concentration (MIC), strain 0284 (TEM-1B, OXA-65, OXA-24)) was 32 µg/mL. The MIC ([2]; read-out: Minimum inhibitory concentration (MIC), strain 0285 (TEM-1B, OXA-65, OXA-24)) was 32 µg/mL, the MIC ([2]; read-out: Minimum inhibitory concentration (MIC), strain 0286 (ADC-25, OXA-66, OXA-24)) was 32 µg/mL and the MIC ([2]; read-out: Minimum inhibitory concentration (MIC), strain 0287 (ADC-25, OXA-66, OXA-72)) was 32 µg/mL. It also gave an MIC ([2]; read-out: Minimum inhibitory concentration (MIC), strain 0288 (ADC-25, OXA-23, OXA-66)) of 128 µg/mL, an MIC ([2]; read-out: Minimum inhibitory concentration (MIC), strain 0289 (ADC-25, OXA-66, OXA-72)) of 32 µg/mL and an MIC ([2]; read-out: Minimum inhibitory concentration (MIC), strain 0290 (TEM-1D, ADC-25, OXA-23, OXA-66)) of 32 µg/mL. The MIC ([2]; read-out: Minimum inhibitory concentration (MIC), strain 0291 (TEM-1D, ADC-25, OXA-23, OXA-66)) was 8 µg/mL, the MIC ([2]; read-out: Minimum inhibitory concentration (MIC), strain 0292 (OXA-66, OXA-72)) was 32 µg/mL and the MIC ([2]; read-out: Minimum inhibitory concentration (MIC), strain 0293 (OXA-66, OXA-72)) was 16 µg/mL. It also gave an MIC ([2]; read-out: Minimum inhibitory concentration (MIC), strain 0294 (TEM-1B, OXA-23, OXA-65)) of 32 µg/mL, an MIC ([2]; read-out: Minimum inhibitory concentration (MIC), strain 0295 (TEM-1D, ADC-25, OXA-23, OXA-66)) of 32 µg/mL and an MIC ([2]; read-out: Minimum inhibitory concentration (MIC), strain 0296 (ADC-25, OXA-23, OXA-223)) of 64 µg/mL. It also gave an MIC ([2]; read-out: Minimum inhibitory concentration (MIC), strain 0297 (ADC-25, OXA-23, OXA-66)) of 32 µg/mL, an MIC ([2]; read-out: Minimum inhibitory concentration (MIC), strain 0298 (TEM-1D, ADC-25, OXA-66, OXA-237)) of 32 µg/mL and an MIC ([2]; read-out: Minimum inhibitory concentration (MIC), strain 0299 (PER-7, OXA-23, OXA-203)) of 128 µg/mL. For the same molecule, the MIC ([2]; read-out: Minimum inhibitory concentration (MIC), strain 0300 (ADC-25, OXA-66)) was 16 µg/mL, the MIC ([2]; read-out: Minimum inhibitory concentration (MIC), strain 0301 (ADC-25, OXA-66, OXA-72)) was 128 µg/mL and the MIC ([2]; read-out: Minimum inhibitory concentration (MIC), strain 0302 (OXA-23, OXA-82)) was 16 µg/mL. It also gave an MIC ([2]; read-out: Minimum inhibitory concentration (MIC), strain 0303 (ADC-25, OXA-23, OXA-66)) of 16 µg/mL, an MIC ([2]; read-out: Minimum inhibitory concentration (MIC), strain 0304 (ADC-25, OXA-66, OXA-72)) of 32 µg/mL and an MIC ([2]; read-out: Minimum inhibitory concentration (MIC), strain 0305 (TEM-1B, OXA-65, OXA-24)) of 16 µg/mL. The MIC ([2]; read-out: Minimum inhibitory concentration (MIC), strain 0306 (TEM-1B, OXA-65, OXA-24)) was 128 µg/mL, the MIC ([2]; read-out: Minimum inhibitory concentration (MIC), strain 0307 (ADC-25, OXA-66, OXA-237)) was 32 µg/mL and the MIC ([2]; read-out: Minimum inhibitory concentration (MIC), strain 0308 (TEM-1D, ADC-25, OXA-71)) was 16 µg/mL. The MIC ([2]; read-out: Minimum inhibitory concentration (MIC), strain 0309 (OXA-23, OXA-82)) was 64 µg/mL, the MIC ([2]; read-out: Minimum inhibitory concentration (MIC), strain 0310 (OXA-23, OXA-82)) was 32 µg/mL and the MIC ([2]; read-out: Minimum inhibitory concentration (MIC), strain 0311 (ADC-25, OXA-23, OXA-82)) was 128 µg/mL. For the same molecule, the MIC ([2]; read-out: Minimum inhibitory concentration (MIC), strain 0312 (OXA-69)) was 32 µg/mL, the MIC ([2]; read-out: Minimum inhibitory concentration (MIC), strain 0313 (TEM-1D, OXA-23, OXA-69)) was 64 µg/mL and the MIC ([2]; read-out: Minimum inhibitory concentration (MIC), strain 157834 (enzyme content ND)) was 16 µg/mL. For the same molecule, the MIC ([2]; read-out: Minimum inhibitory concentration (MIC), strain 157842 (enzyme content ND)) was 4 µg/mL, the MIC ([2]; read-out: Minimum inhibitory concentration (MIC), strain 157876 (enzyme content ND)) was 8 µg/mL and the MIC ([2]; read-out: Minimum inhibitory concentration (MIC), strain 157901 (enzyme content ND)) was 16 µg/mL. The MIC ([2]; read-out: Minimum inhibitory concentration (MIC), strain 161750 (enzyme content ND)) was 128 µg/mL, the MIC ([2]; read-out: Minimum inhibitory concentration (MIC), strain 161752 (enzyme content ND)) was 16 µg/mL and the MIC ([2]; read-out: Minimum inhibitory concentration (MIC), strain 161755 (enzyme content ND)) was 8 µg/mL. For the same molecule, the MIC ([2]; read-out: Minimum inhibitory concentration (MIC), strain 161756 (enzyme content ND)) was 8 µg/mL, the MIC ([2]; read-out: Minimum inhibitory concentration (MIC), strain 161760 (enzyme content ND)) was 32 µg/mL and the MIC ([2]; read-out: Minimum inhibitory concentration (MIC), strain 161762 (enzyme content ND)) was 8 µg/mL.

Reference: patent publication US20220054513A1, “COMBINATION COMPOSITIONS COMPRISING A BETA-LACTAMASE INHIBITOR” (VenatoRx Pharmaceuticals, Inc., priority 2018, published 2022)
